From patent US20140221460A1, “METHOD FOR IDENTIFYING MODULATORS OF HCV TRANSLATION OR REPLICATION INVOLVING THE NS5B POLYPEPTIDE AND A PSEUDOKNOT” (priority 2011, published 2014)

How the values were obtained:
[1] = test system: sub-genomic replicon, genotype 1b (Con1b); assay: Sub-genomic replicon assay (luciferase); format: cell-based, hepatitis C virus; settings: FIG. 8
Experimental: This assay uses a sub-genomic replicon analogous to that described by Lohmann (Lohmann et al., 1999). As above, we co-transfect an RNA encoding renilla […] luciferase to allow normalization of transfection levels. In these assays we usually transfect the sub-genomic replicon (and renilla) RNA 24 hours before addition of the oligonucleotides.
In this assay we investigated inhibition of luciferase gene activity encoding by the sub-genomic replicon and the influence of prior transfection of oligonucleotides directed against SL9266 or SL9571. The sub-genomic replicon is a genotype 1b sequences (Con1b) and directly complementary oligonucleotides directed against SL9266 (labelled anti SL9266_C) inhibit replication by ˜70% (see FIG. 8).

[2] = test system: translation of hepatitis C virus; assay: Translation assay with bicistronic luciferase reporter, co-transfected with oligonucleotides; format: cell-based; settings: Huh-7.5 cells, added at 1600 nM, normalized to untreated samples
Excerpt: The translation assay uses the bicistronic reporter gene system described in Example 1. In brief, a firefly luciferase reporter gene is under the translational control of the HCV internal ribosome entry site (IRES) as part of the complete 5′ untranslated region of HCV. The luciferase gene is followed by an IRES from an unrelated virus (encephalomyocarditis virus; EMCV) which drives expression of the RNA dependent RNA polymerase (RdRp) of HCV (the NS5B protein) which, in turn, is followed by the HCV 3′ untranslated region (3′ UTR).
All experiments are routinely conducted in human hepatoma cells—Huh-7.5. This is the cell line in which HCV replicates. However, we have also investigated the bicistronic reporter system in HepG2, HeLa and murine cell lines, as well as in cell free translation systems supplemented with Huh-7.5 cell extracts.
The readout of the translation assay is luciferase activity. To control for differences in transfection we co-transfected a separate plasmid encoding renilla luciferase and normalize all firefly results to this.
The translation inhibition assay is typically conducted by co-transfecting RNA generated in vitro from the bicistronic reporter plasmid with oligonucleotides to be tested. Assays for luciferase are routinely conducted four hours post transfection.

[3] = test system: genotype 2a JFH-1 hepatitis C virus; assay: Virus production / virus replication assay (HCVcc, NS5A immunofocal staining); format: cell-based; settings: JFH-1 in Huh-7.5 cells, compared to untreated cells, FIG. 9
Experimental: This assay uses the HCVcc system that measures the production of infectious genotype 2a JFH-1 hepatitis C virus as described previously (Wakita et al., 2005). In this assay oligonucleotides directed against RNA sequences or structures are transfected into Huh-7.5 cells and a known amount of virus added 4 hours later. After 24 hours incubation the cell sheet is fixed and virus replication quantified by immunofocal staining for virus antigen (in this instance the NS5A protein). Infected cells are counted using a fluorescence microscope.

Substance: 5′-ACGCTGTGAAAAATGTC-3′ [JFH-1 anti-SL9266 LNA oligonucleotide]
- inhibition of replication (replicon luciferase activity), in words [1]: only partially inhibitory

Substance: 5′-GCACAGCGCAAGTATGTTA-3′ [Randomised LNA oligonucleotide]
- inhibition of translation (maximum) [2]: ~20%
- influence on virus replication, in words [3]: little or no influence

Substance: 5′-GGGCACGAGACAGGCTGTGAT-3′ [Con1b anti-SL9266 LNA oligonucleotide]
- inhibition of replication (replicon luciferase activity) [1]: ~70%
